Test results reported in patent publication US9765018B2, “IDO inhibitors” (BRISTOL-MYERS SQUIBB COMPANY, priority 2013, dated 2017).

The compounds below were run against IDO (Homo sapiens (Human), UniProt P14902) (assay: LLE_IDO_ABS_DR (IDO assay, method not described)).
Sequence of IDO (P14902 whole entry): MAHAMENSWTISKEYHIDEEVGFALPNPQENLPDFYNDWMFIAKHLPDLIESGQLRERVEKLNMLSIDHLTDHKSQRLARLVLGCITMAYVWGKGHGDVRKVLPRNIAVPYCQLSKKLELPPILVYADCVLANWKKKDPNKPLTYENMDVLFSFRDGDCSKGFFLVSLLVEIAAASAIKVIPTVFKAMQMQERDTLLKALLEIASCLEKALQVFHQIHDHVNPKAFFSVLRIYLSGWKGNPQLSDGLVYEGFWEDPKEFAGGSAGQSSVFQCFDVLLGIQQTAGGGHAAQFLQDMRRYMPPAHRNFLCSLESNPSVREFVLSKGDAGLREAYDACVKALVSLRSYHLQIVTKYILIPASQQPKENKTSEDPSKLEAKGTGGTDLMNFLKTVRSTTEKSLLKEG
With Cc1ccc(NC(=O)Nc2cc(-c3ccccc3-c3nnn[nH]3)ccc2OCc2ccccc2)cc1 [Example 28, 1-(4-(Benzyloxy)-2′-(1H-tetrazol-5-yl)-[1,1′-biphenyl]-3-yl)-3-(p-tolyl)urea] the IC50 was 250 nM. Work on C/C=C/Cc1cc(-c2ccccc2-c2nnn[nH]2)cc(NC(=O)Nc2ccc(C)cc2)c1OCc1ccccc1 [Example 25, (E)-1-(4-(Benzyloxy)-5-(but-2-en-1-yl)-2′-(1H-tetrazol-5-yl)-[1,1′-biphenyl]-3-yl)-3-(p-tolyl)urea] yielded an IC50 of 160 nM. Compound CCC(Oc1ccc(-c2cc(F)ccc2C(=O)O)cc1NC(=O)Nc1ccc(C)cc1)c1ccccc1 (stereo not drawn) [Example 268] has an IC50 of 690 nM. Work on COc1ccc(-c2ccc(OC(C(C)C)C(C)C)c(NC(=O)Nc3ccccc3F)c2)cc1C(=O)O [Example 12, 4′-((2,4-Dimethylpentan-3-yl)oxy)-3′-(3-(2-fluorophenyl)ureido)-4-methoxy-[1,1′-biphenyl]-3-carboxylic acid] yielded an IC50 of 820 nM. CCCCc1cc(-c2cc(F)ccc2C(=O)O)cc(NC(=O)Nc2ccc(C)cc2)c1OCCC [Example 24] showed an IC50 of 80 nM. With CCCOc1c(CCCc2ccccc2)cc(-c2ccccc2-c2nnn[nH]2)cc1NC(=O)Nc1ccc(C)cc1 [Example 37, 1-(5-(3-Phenylpropyl)-4-propoxy-2′-(1H-tetrazol-5-yl)biphenyl-3-yl)-3-p-tolylurea] the IC50 was 130 nM. CCCC(CCC)Oc1ccc(-c2cc(F)ccc2C(=O)O)cc1NC(=O)Nc1ccc(C)cc1 [Example 15, 5-Fluoro-4′-(heptan-4-yloxy)-3′-(3-(p-tolyl)ureido)-[1,1′-biphenyl]-2-carboxylic acid] gave an IC50 of 380 nM. For C=CC(c1ccccc1)c1cc(-c2cc(F)ccc2C(=O)O)cc(NC(=O)Nc2ccc(C)cc2)c1OC1CCC(F)(F)CC1 (stereo not drawn) [Example 292], the IC50 was 3350 nM. Work on CCCCc1cc(-c2ccccc2C(=O)O)cc(NC(=O)Nc2ccc(C)cc2)c1OCCC [Example 23, 3′-Butyl-4′-propoxy-5′-(3-(p-tolyl)ureido)-[1,1′-biphenyl]-2-carboxylic acid] yielded an IC50 of 130 nM. Work on CCCOc1c(/C=C/C=C(F)F)cc(-c2cc(F)ccc2C(=O)O)cc1NC(=O)Nc1ccc(C)cc1 [Example 33, (E)-3′-(4,4-Difluorobuta-1,3-dien-1-yl)-5-fluoro-4′-propoxy-5′-(3-(p-tolyl)ureido)-[1,1′-biphenyl]-2-carboxylic acid] yielded an IC50 of 110 nM. Cc1ccc(NC(=O)Nc2cc(-c3ccccc3-c3nn[nH]n3)ccc2OC(C(C)C)C(C)C)cc1 [Example 9, 1-(4-((2,4-Dimethylpentan-3-yl)oxy)-2′-(1H-tetrazol-5-yl)-[1,1′-biphenyl]-3-yl)-3-(p-tolyl)urea] showed an IC50 of 30 nM. CCCOc1c(C/C=C/c2ccccc2)cc(-c2ccccc2-c2nnn[nH]2)cc1NC(=O)Nc1ccc(C)cc1 [Example 34, (E)-1-(5-Cinnamyl-4-propoxy-2′-(1H-tetrazol-5-yl)biphenyl-3-yl)-3-p-tolylurea] gave an IC50 of 170 nM. Work on O=C(Nc1ccc(C2CC2)cc1)Nc1cc(-c2ccccc2-c2nnn[nH]2)cc(CC2CC2)c1OC1CCOCC1 [Example 328] yielded an IC50 of 130 nM. In the case of Cc1ccc(NC(=O)Nc2cc(-c3cc(F)ccc3C(=O)O)ccc2OC(CCN2CCOCC2)c2ccccc2)cc1 (stereo not drawn) [Example 307], the IC50 is reported as 40 nM. For CCCOc1c(C/C=C/c2ccccc2)cc(-c2ccccc2-c2nnn[nH]2)cc1NC(=O)Nc1ccccc1F [Example 38, (E)-1-(5-Cinnamyl-4-propoxy-2′-(1H-tetrazol-5-yl)biphenyl-3-yl)-3-(2-fluorophenyl)urea], the IC50 was 210 nM. O=C(Nc1ccc(F)cc1F)Nc1cc(-c2ccccc2-c2nnn[nH]2)cc(CC2CC2)c1OCC1CC1 [Example 277] showed an IC50 of 30 nM. Work on Cc1ccc(NC(=O)Nc2cc(-c3ccccc3-c3nnn[nH]3)cc(CC3CC3)c2OCC2CC2)cc1 [Example 324] yielded an IC50 of 1070 nM. For Cc1cccc(NC(=O)Nc2cc(-c3ccccc3-c3nnn[nH]3)cc(CC3CC3)c2OC2CCOCC2)c1 [Example 326], the IC50 was 130 nM. For CCC[C@@H](Oc1ccc(-c2ccccc2-c2nnn[nH]2)cc1NC(=O)Nc1ccc(C)cc1)c1ccccc1 [Example 273], the IC50 was 40 nM. With Cc1ccc(NC(=O)Nc2cc(-c3ccccc3-c3nnn[nH]3)cc(CC3CC3)c2OCCC(F)(F)F)cc1 [Example 317] the IC50 was 330 nM. CC(C)(C)c1ccccc1Oc1ccc(-c2ccc(F)cc2-c2nnn[nH]2)cc1NC(=O)Nc1ccccc1Cl [Example 195, 1-(4-(2-tert-butylphenoxy)-4′-fluoro-2′-(1H-tetrazol-5-yl)biphenyl-3-yl)-3-(2-chlorophenyl)urea] gave an IC50 of 1860 nM. C=CC(c1ccccc1)c1cc(-c2ccccc2C(=O)O)cc(NC(=O)Nc2ccc(C)cc2)c1OC1CCC(F)(F)CC1 (stereo not drawn) [Example 291] showed an IC50 of 730 nM. In the case of C/C=C/Cc1cc(-c2cc(F)ccc2C(=O)O)cc(NC(=O)Nc2ccc(C)cc2)c1OCc1ccccc1 [Example 27, (E)-4′-(Benzyloxy)-3′-(but-2-en-1-yl)-5-fluoro-5′-(3-(p-tolyl)ureido)-[1,1′-biphenyl]-2-carboxylic acid], the IC50 is reported as 850 nM. O=C(Nc1ccc(F)cc1F)Nc1cc(-c2ccccc2-c2nnn[nH]2)cc(CC2CC2)c1Oc1ccccc1 [Example 329] showed an IC50 of 1660 nM. Compound Cc1cccc(NC(=O)Nc2cc(-c3ccccc3-c3nnn[nH]3)cc(CC3CC3)c2OCC2CC2)c1 [Example 325] has an IC50 of 2970 nM. For C/C=C/Cc1cc(-c2ccccc2C(=O)O)cc(NC(=O)Nc2ccc(C)cc2)c1OCCC [Example 20, (E)-3′-(But-2-en-1-yl)-4′-propoxy-5′-(3-(p-tolyl)ureido)-[1,1′-biphenyl]-2-carboxylic acid], the IC50 was 170 nM. Work on CC(C)(C)c1ccccc1Oc1ccc(-c2ccc(Cl)cc2-c2nnn[nH]2)cc1NC(=O)Nc1ccccc1Cl [Example 198, 1-(4-(2-tert-butylphenoxy)-4′-chloro-2′-(1H-tetrazol-5-yl)biphenyl-3-yl)-3-(2-chlorophenyl)urea] yielded an IC50 of 1490 nM. With CCC[C@H](Oc1ccc(-c2cc(F)ccc2C(=O)O)cc1NC(=O)Nc1ccc(C)cc1)c1ccccc1 [Example 275] the IC50 was 1740 nM. CC/C=C/Cc1cc(-c2ccccc2-c2nnn[nH]2)cc(NC(=O)Nc2ccc(C)cc2)c1OCCC [Example 285] showed an IC50 of 140 nM. O=C(Nc1ccccc1F)Nc1cc(-c2ccccc2C(=O)O)cc(/C=C/C=C(F)F)c1OCCC(F)(F)F [Example 305] showed an IC50 of 820 nM. With Cc1ccc(NC(=O)Nc2cc(-c3ccc(Cl)cc3-c3nnn[nH]3)ccc2Oc2ccccc2C(C)(C)C)cc1 [Example 199, 1-(4-(2-tert-butylphenoxy)-4′-chloro-2′-(1H-tetrazol-5-yl)biphenyl-3-yl)-3-p-tolylurea] the IC50 was 90 nM. For CCCOc1c(CCCc2ccccc2)cc(-c2ccccc2-c2nnn[nH]2)cc1NC(=O)Nc1ccccc1F [Example 39, 1-(2-Fluorophenyl)-3-(5-(3-phenylpropyl)-4-propoxy-2′-(1H-tetrazol-5-yl)biphenyl-3-yl)urea], the IC50 was 50 nM. Compound Cc1ccc(NC(=O)Nc2cc(-c3cc(F)ccc3C(=O)O)ccc2OC(CCC(F)(F)F)c2ccccc2Cl)cc1 (stereo not drawn) [Example 267, 4′-(1-(2-Chlorophenyl)-4,4,4-trifluorobutoxy)-5-fluoro-3′-(3-(p-tolyl)ureido)-[1,1′-biphenyl]-2-carboxylic acid] has an IC50 of 390 nM. CCCCC(Oc1ccc(-c2ccccc2-c2nnn[nH]2)cc1NC(=O)Nc1ccc(C)cc1)C1CCCCC1 (stereo not drawn) [Example 272] showed an IC50 of 100 nM. In the case of CCCC(CCC)Oc1ccc(-c2ccccc2-c2nn[nH]n2)cc1NC(=O)Nc1ccc(C)cc1 [Example 13, 1-(4-(Heptan-4-yloxy)-2′-(1H-tetrazol-5-yl)-[1,1′-biphenyl]-3-yl)-3-(p-tolyl)urea], the IC50 is reported as 30 nM. With C=CC(c1ccccc1)c1cc(-c2ccccc2-c2nnn[nH]2)cc(NC(=O)Nc2ccc(C)cc2)c1OCC(C)C (stereo not drawn) [Example 299] the IC50 was 100 nM. In the case of O=C(Nc1ccc(Cl)cc1)Nc1cc(-c2ccccc2-c2nnn[nH]2)cc(CC2CC2)c1OCCC(F)(F)F [Example 314, 1-(4-chlorophenyl)-3-(5-(cyclopropylmethyl)-2′-(1H-tetrazol-5-yl)-4-(3,3,3-trifluoropropoxy)-[1,1′-biphenyl]-3-yl)urea], the IC50 is reported as 2360 nM. For CCCC(CCC)Oc1c(Br)cc(-c2ccccc2-c2nnn[nH]2)cc1NC(=O)Nc1ccc(C)cc1 [Example 286], the IC50 was 470 nM. O=C(Nc1ccc(Cl)cc1)Nc1cc(-c2ccccc2-c2nnn[nH]2)cc(CC2CC2)c1OCC1CC1 [Example 327] showed an IC50 of 310 nM. With Cc1ccc(NC(=O)Nc2cc(-c3ccccc3-c3nnn[nH]3)ccc2OC(CCC(F)(F)F)c2ccccc2)cc1 (stereo not drawn) [Example 310] the IC50 was 1720 nM. With CCCC(Oc1ccc(-c2ccccc2-c2nnn[nH]2)cc1NC(=O)Nc1ccc(C)cc1)c1ccc(Cl)cc1 (stereo not drawn) [Example 308] the IC50 was 860 nM. C=CC(c1ccccc1)c1cc(-c2ccccc2-c2nnn[nH]2)cc(NC(=O)Nc2ccc(C)cc2)c1OCCC(F)(F)F (stereo not drawn) [Example 290] showed an IC50 of 1490 nM. In the case of CCC[C@@H](Oc1ccc(-c2cc(F)ccc2C(=O)O)cc1NC(=O)Nc1ccc(C)cc1)c1ccccc1 [Example 270], the IC50 is reported as 20 nM. With CCC[C@H](Oc1ccc(-c2ccccc2-c2nnn[nH]2)cc1NC(=O)Nc1ccc(C)cc1)c1ccccc1 [Example 274] the IC50 was 3510 nM. CCCC(CCC)Oc1ccc(-c2ccccc2C(=O)O)cc1NC(=O)Nc1ccc(C)cc1 [Example 14, 4′-(Heptan-4-yloxy)-3′-(3-(p-tolyl)ureido)-[1,1′-biphenyl]-2-carboxylic acid] showed an IC50 of 600 nM. For Cc1ccc(NC(=O)Nc2cc(-c3cc(F)ccc3C(=O)O)ccc2OC(CCC(F)(F)F)c2ccc(Cl)cc2)cc1 (stereo not drawn) [Example 311], the IC50 was 200 nM. O=C(Nc1ccc(OC(F)(F)F)cc1)Nc1cc(-c2ccccc2-c2nnn[nH]2)cc(CC2CC2)c1Oc1ccccc1 [Example 320] showed an IC50 of 220 nM. O=C(Nc1ccccc1F)Nc1cc(-c2cc(F)ccc2C(=O)O)cc(C/C=C/C(F)(F)F)c1OCCC(F)(F)F [Example 282] was tested, and the IC50 was 1380 nM. CCCCc1cc(-c2cc(F)ccc2C(=O)O)cc(NC(=O)Nc2ccc(C)cc2)c1OCc1ccccc1 [Example 40, 4′-(Benzyloxy)-3′-butyl-5-fluoro-5′-(3-p-tolylureido)biphenyl-2-carboxylic acid] was tested, and the IC50 was 130 nM. Cc1ccc(NC(=O)Nc2cc(-c3cc(F)ccc3C(=O)O)ccc2OC(CCC(F)(F)F)c2ccccc2)cc1 (stereo not drawn) [Example 309] showed an IC50 of 90 nM. With Cc1ccc(NC(=O)Nc2cc(-c3ccccc3C(=O)O)ccc2OCc2ccccc2)cc1 [Example 294] the IC50 was 520 nM.
